Test results taken from patent publication US8952024B2, “Herbicidal pyrimidone derivatives” (E I du Pont de Nemours and Company, priority 2009, dated 2015).

Columns and labels:
Assay type in all cases: in vivo
[1] = test system: large crabgrass (Digitaria sanguinalis); test: Test A pre-/postemergence plant response
Description: (§1) Seeds of barnyardgrass (Echinochloa crus-galli), large crabgrass (Digitaria sanguinalis), giant foxtail (Setaria faberii), morningglory (Ipomoea spp.), pigweed (Amaranthus retroflexus), velvetleaf (Abutilon theophrasti), wheat (Triticum aestivum) and corn (Zea mays) were planted into a blend of loam soil and sand and treated preemergence with a directed soil spray using test chemicals formulated in a non-phytotoxic solvent mixture which included a surfactant. At the same time these species were also treated with postemergence applications of test compounds formulated in the same manner.
(§2) Plants ranged in height from two to ten cm and were in the one- to two-leaf stage for the postemergence treatment. Treated plants and untreated controls were maintained in a greenhouse for approximately ten days, after which time all treated plants were compared to untreated controls and visually evaluated for injury. Plant response ratings, summarized in Table A, are based on a 0 to 100 scale where 0 is no effect and 100 is complete control. A dash (-) response means no test result.

[2] = test system: pigweed (Amaranthus retroflexus); test: Test A pre-/postemergence plant response
Description: as §1, §2

[3] = test system: morningglory (Ipomoea spp.); test: Test A pre-/postemergence plant response
Description: as §1, §2

[4] = test system: wheat (Triticum aestivum); test: Test A pre-/postemergence plant response
Description: as §1, §2

[5] = test system: giant foxtail (Setaria faberii); test: Test A pre-/postemergence plant response
Description: as §1, §2

[6] = test system: velvetleaf (Abutilon theophrasti); test: Test A pre-/postemergence plant response
Description: as §1, §2

corn (Zea mays) = test: Test A pre-/postemergence plant response
Description: as §1, §2

[7] = test system: barnyardgrass (Echinochloa crus-galli); test: Test A pre-/postemergence plant response
Description: as §1, §2

[8] = test system: umbrella sedge (Cyperus difformis); test: Test B flooded paddy test; conditions: for Plant response rating, Flood, Sedge, Umbrella: 250 g ai/ha, flooded paddy test, visual rating on 0 to 100 scale (0 no effect, 100 complete control) after 13 to 15 days; for Plant response rating, Sedge, Umbrella: Flood (flooded paddy test), 13 to 15 days; for Sedge, Umbrella plant response rating: Flood, 31 g ai/ha, scale 0 to 100 (0 no effect, 100 complete control)
Procedure, shortened: (§3)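 Seedlings reaching 2 leaves are flooded 3 cm deep; test material is delivered to that water, which stays at the same depth. Plants remain in a greenhouse 13–15 days and are then scored by eye versus controls from 0 to 100.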

[9] = test system: ducksalad (Heteranthera limosa); test: Test B flooded paddy test; conditions: for Plant response rating, Flood, Ducksalad: 250 g ai/ha, flooded paddy test, visual rating on 0 to 100 scale (0 no effect, 100 complete control) after 13 to 15 days; for Plant response rating, Ducksalad: Flood (flooded paddy test), 13 to 15 days; for Ducksalad plant response rating: Flood, 31 g ai/ha, scale 0 to 100 (0 no effect, 100 complete control)
Procedure, shortened: as §3

rice (Oryza sativa) = test: Test B flooded paddy test; conditions: for Plant response rating, Flood, Rice: 250 g ai/ha, flooded paddy test, visual rating on 0 to 100 scale (0 no effect, 100 complete control) after 13 to 15 days; for Plant response rating, Rice: Flood (flooded paddy test), 13 to 15 days; for Rice plant response rating: Flood, 31 g ai/ha, scale 0 to 100 (0 no effect, 100 complete control)
Procedure, shortened: as §3

[10] = test system: barnyardgrass (Echinochloa crus-galli); test: Test B flooded paddy test; conditions: for Plant response rating, Flood, Barnyardgrass: 250 g ai/ha, flooded paddy test, visual rating on 0 to 100 scale (0 no effect, 100 complete control) after 13 to 15 days; for Plant response rating, Barnyardgrass: Flood (flooded paddy test), 13 to 15 days; for Barnyardgrass plant response rating: Flood, 31 g ai/ha, scale 0 to 100 (0 no effect, 100 complete control)
Procedure, shortened: as §3

[11] = Postemergence, 125 g ai/ha, 0 to 100 scale where 0 is no effect and 100 is complete control
[12] = Postemergence, 500 g ai/ha, 0 to 100 scale, 0 = no effect, 100 = complete control, approx. ten days
[13] = Preemergence, 125 g ai/ha, 0 to 100 scale, 0 = no effect, 100 = complete control
[14] = Preemergence, 500 g ai/ha, visual injury, 0 to 100 scale (0 no effect, 100 complete control), approx. ten days
[15] = 62 g ai/ha, scale of 0 to 100 where 0 is no effect and 100 is complete control
[16] = 125 g ai/ha, scale 0 to 100, 0 is no effect, 100 is complete control

SMILES: CCCn1c(-c2ccco2)ncc(C(=O)C2=C(O)CCCC2=O)c1=O [Compound 110]
- Plant response rating, Crabgrass, Large [1, 11]: 80
- Plant response rating, Crabgrass, Large [1, 12]: 90
- Plant response rating, Crabgrass, Large [1, 13]: 40
- Plant response rating, Crabgrass, Large [1, 14]: 80
- Plant response rating, Pigweed [2, 11]: 90
- Plant response rating, Pigweed [2, 12]: 100
- Plant response rating, Pigweed [2, 13]: 80
- Plant response rating, Pigweed [2, 14]: 90
- Plant response rating, Morningglory [3, 11]: 90
- Plant response rating, Morningglory [3, 12]: 100
- Plant response rating, Morningglory [3, 13]: 40
- Plant response rating, Morningglory [3, 14]: 70
- Plant response rating, Wheat [4, 11]: 0
- Plant response rating, Wheat [4, 12]: 0
- Plant response rating, Wheat [4, 13]: 0
- Plant response rating, Wheat [4, 14]: 0
- Plant response rating, Foxtail, Giant [5, 11]: 10
- Plant response rating, Foxtail, Giant [5, 12]: 50
- Plant response rating, Foxtail, Giant [5, 13]: 0
- Plant response rating, Foxtail, Giant [5, 14]: 10
- Plant response rating, Velvetleaf [6, 11]: 90
- Plant response rating, Velvetleaf [6, 12]: 100
- Plant response rating, Velvetleaf [6, 13]: 60
- Plant response rating, Velvetleaf [6, 14]: 70
- Plant response rating, Corn (corn (Zea mays); [11]): 0
- Plant response rating, Corn (corn (Zea mays); [12]): 10
- Plant response rating, Corn (corn (Zea mays); [13]): 0
- Plant response rating, Corn (corn (Zea mays); [14]): 0
- Plant response rating, Barnyardgrass [7, 11]: 60
- Plant response rating, Barnyardgrass [7, 12]: 90
- Plant response rating, Barnyardgrass [7, 13]: 20
- Plant response rating, Barnyardgrass [7, 14]: 60
- Plant response rating, Flood, Sedge, Umbrella [8]: 75
- Plant response rating, Sedge, Umbrella [8, 15]: 35
- Plant response rating, Sedge, Umbrella [8, 16]: 50
- Sedge, Umbrella plant response rating [8]: 30
- Plant response rating, Flood, Ducksalad [9]: 75
- Plant response rating, Ducksalad [9, 15]: 40
- Plant response rating, Ducksalad [9, 16]: 75
- Ducksalad plant response rating [9]: 0
- Plant response rating, Flood, Rice (rice (Oryza sativa)): 30
- Plant response rating, Rice (rice (Oryza sativa); [15]): 0
- Plant response rating, Rice (rice (Oryza sativa); [16]): 30
- Rice plant response rating (rice (Oryza sativa)): 0
- Plant response rating, Flood, Barnyardgrass [10]: 40
- Plant response rating, Barnyardgrass [10, 15]: 0
- Plant response rating, Barnyardgrass [10, 16]: 20
- Barnyardgrass plant response rating [10]: 0

SMILES: CCn1c(-c2cccc(C)c2)ncc(C(=O)C2=C(O)CCCC2=O)c1=O [Compound 115]
- Plant response rating, Crabgrass, Large [1, 11]: 60
- Plant response rating, Crabgrass, Large [1, 12]: 90
- Plant response rating, Crabgrass, Large [1, 13]: 20
- Plant response rating, Crabgrass, Large [1, 14]: 80
- Plant response rating, Pigweed [2, 11]: 100
- Plant response rating, Pigweed [2, 12]: 100
- Plant response rating, Pigweed [2, 13]: 70
- Plant response rating, Pigweed [2, 14]: 100
- Plant response rating, Morningglory [3, 11]: 90
- Plant response rating, Morningglory [3, 12]: 100
- Plant response rating, Morningglory [3, 13]: 60
- Plant response rating, Morningglory [3, 14]: 80
- Plant response rating, Wheat [4, 11]: 0
- Plant response rating, Wheat [4, 12]: 0
- Plant response rating, Wheat [4, 13]: 0
- Plant response rating, Wheat [4, 14]: 0
- Plant response rating, Foxtail, Giant [5, 11]: 50
- Plant response rating, Foxtail, Giant [5, 12]: 80
- Plant response rating, Foxtail, Giant [5, 13]: 20
- Plant response rating, Foxtail, Giant [5, 14]: 70
- Plant response rating, Velvetleaf [6, 11]: 100
- Plant response rating, Velvetleaf [6, 12]: 100
- Plant response rating, Velvetleaf [6, 13]: 60
- Plant response rating, Velvetleaf [6, 14]: 90
- Plant response rating, Corn (corn (Zea mays); [11]): 0
- Plant response rating, Corn (corn (Zea mays); [12]): 20
- Plant response rating, Corn (corn (Zea mays); [13]): 0
- Plant response rating, Corn (corn (Zea mays); [14]): 0
- Plant response rating, Barnyardgrass [7, 11]: 70
- Plant response rating, Barnyardgrass [7, 12]: 90
- Plant response rating, Barnyardgrass [7, 13]: 0
- Plant response rating, Barnyardgrass [7, 14]: 80
- Plant response rating, Flood, Sedge, Umbrella [8]: 90
- Plant response rating, Sedge, Umbrella [8, 15]: 70
- Plant response rating, Flood, Ducksalad [9]: 85
- Plant response rating, Ducksalad [9, 15]: 85
- Plant response rating, Flood, Rice (rice (Oryza sativa)): 20
- Plant response rating, Rice (rice (Oryza sativa); [15]): 20
- Plant response rating, Flood, Barnyardgrass [10]: 65
- Plant response rating, Barnyardgrass [10, 15]: 50

SMILES: CCCCn1c(-c2cccc(C)c2)ncc(C(=O)C2=C(O)CCCC2=O)c1=O [Compound 116]
- Plant response rating, Crabgrass, Large [1, 11]: 60
- Plant response rating, Crabgrass, Large [1, 12]: 80
- Plant response rating, Crabgrass, Large [1, 13]: 30
- Plant response rating, Crabgrass, Large [1, 14]: 70
- Plant response rating, Pigweed [2, 11]: 100
- Plant response rating, Pigweed [2, 12]: 100
- Plant response rating, Pigweed [2, 13]: 60
- Plant response rating, Pigweed [2, 14]: 100
- Plant response rating, Morningglory [3, 11]: 100
- Plant response rating, Morningglory [3, 12]: 100
- Plant response rating, Morningglory [3, 13]: 0
- Plant response rating, Morningglory [3, 14]: 40
- Plant response rating, Wheat [4, 11]: 0
- Plant response rating, Wheat [4, 12]: 0
- Plant response rating, Wheat [4, 13]: 0
- Plant response rating, Wheat [4, 14]: 0
- Plant response rating, Foxtail, Giant [5, 11]: 60
- Plant response rating, Foxtail, Giant [5, 12]: 90
- Plant response rating, Foxtail, Giant [5, 13]: 10
- Plant response rating, Foxtail, Giant [5, 14]: 60
- Plant response rating, Velvetleaf [6, 11]: 70
- Plant response rating, Velvetleaf [6, 12]: 100
- Plant response rating, Velvetleaf [6, 13]: 30
- Plant response rating, Velvetleaf [6, 14]: 60
- Plant response rating, Corn (corn (Zea mays); [11]): 0
- Plant response rating, Corn (corn (Zea mays); [12]): 10
- Plant response rating, Corn (corn (Zea mays); [13]): 0
- Plant response rating, Corn (corn (Zea mays); [14]): 0
- Plant response rating, Barnyardgrass [7, 11]: 80
- Plant response rating, Barnyardgrass [7, 12]: 100
- Plant response rating, Barnyardgrass [7, 13]: 10
- Plant response rating, Barnyardgrass [7, 14]: 70
- Plant response rating, Flood, Sedge, Umbrella [8]: 90
- Plant response rating, Sedge, Umbrella [8, 15]: 75
- Plant response rating, Flood, Ducksalad [9]: 85
- Plant response rating, Ducksalad [9, 15]: 80
- Plant response rating, Flood, Rice (rice (Oryza sativa)): 0
- Plant response rating, Rice (rice (Oryza sativa); [15]): 0
- Plant response rating, Flood, Barnyardgrass [10]: 75
- Plant response rating, Barnyardgrass [10, 15]: 65

SMILES: CCCCn1c(-c2cccc(F)c2)ncc(C(=O)C2=C(O)CCCC2=O)c1=O [Compound 125]
- Plant response rating, Crabgrass, Large [1, 11]: 70
- Plant response rating, Crabgrass, Large [1, 12]: 90
- Plant response rating, Crabgrass, Large [1, 13]: 80
- Plant response rating, Crabgrass, Large [1, 14]: 100
- Plant response rating, Pigweed [2, 11]: 90
- Plant response rating, Pigweed [2, 12]: 100
- Plant response rating, Pigweed [2, 13]: 90
- Plant response rating, Pigweed [2, 14]: 90
- Plant response rating, Morningglory [3, 11]: 80
- Plant response rating, Morningglory [3, 12]: 80
- Plant response rating, Morningglory [3, 13]: 0
- Plant response rating, Morningglory [3, 14]: 0
- Plant response rating, Wheat [4, 11]: 0
- Plant response rating, Wheat [4, 12]: 10
- Plant response rating, Wheat [4, 13]: 0
- Plant response rating, Wheat [4, 14]: 0
- Plant response rating, Foxtail, Giant [5, 11]: 70
- Plant response rating, Foxtail, Giant [5, 12]: 90
- Plant response rating, Foxtail, Giant [5, 13]: 40
- Plant response rating, Foxtail, Giant [5, 14]: 80
- Plant response rating, Velvetleaf [6, 11]: 100
- Plant response rating, Velvetleaf [6, 12]: 100
- Plant response rating, Velvetleaf [6, 13]: 60
- Plant response rating, Velvetleaf [6, 14]: 100
- Plant response rating, Corn (corn (Zea mays); [11]): 0
- Plant response rating, Corn (corn (Zea mays); [12]): 20
- Plant response rating, Corn (corn (Zea mays); [13]): 0
- Plant response rating, Corn (corn (Zea mays); [14]): 0
- Plant response rating, Barnyardgrass [7, 11]: 70
- Plant response rating, Barnyardgrass [7, 12]: 90
- Plant response rating, Barnyardgrass [7, 13]: 10
- Plant response rating, Barnyardgrass [7, 14]: 90
- Plant response rating, Flood, Sedge, Umbrella [8]: 90
- Plant response rating, Sedge, Umbrella [8, 15]: 35
- Plant response rating, Sedge, Umbrella [8, 16]: 90
- Sedge, Umbrella plant response rating [8]: 25
- Plant response rating, Flood, Ducksalad [9]: 70
- Plant response rating, Ducksalad [9, 15]: 40
- Plant response rating, Ducksalad [9, 16]: 60
- Ducksalad plant response rating [9]: 20
- Plant response rating, Flood, Rice (rice (Oryza sativa)): 0
- Plant response rating, Rice (rice (Oryza sativa); [15]): 0
- Plant response rating, Rice (rice (Oryza sativa); [16]): 0
- Rice plant response rating (rice (Oryza sativa)): 0
- Plant response rating, Flood, Barnyardgrass [10]: 60
- Plant response rating, Barnyardgrass [10, 15]: 25
- Plant response rating, Barnyardgrass [10, 16]: 40
- Barnyardgrass plant response rating [10]: 0
